Experimental data taken from PubChem BioAssay (NCI).
Where “and” joins values, the source holds several entries; their conditions need not be identical. Identical values can stand only once.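 Cultured in 96-well plates, cells were exposed to test compound for 48 hours across five concentrations. The concentration for 50% growth inhibition is given as GI50. TGI: total growth inhibition.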

Key:
Experiment in all cases: NCI anticancer screen, dose series, 48 h
SR leukemia = system: SR leukemia
CAKI-1 renal = system: CAKI-1 renal
RXF 393 renal = system: RXF 393 renal
HCT-15 colon = system: HCT-15 colon
SF-539 CNS = system: SF-539 CNS
UACC-62 melanoma = system: UACC-62 melanoma
NCI-H522 lung = system: NCI-H522 lung
SK-OV-3 ovarian = system: SK-OV-3 ovarian

Compound | GI50 (SR leukemia) | TGI (SR leukemia) | GI50 (CAKI-1 renal) | TGI (CAKI-1 renal) | GI50 (RXF 393 renal) | TGI (RXF 393 renal) | GI50 (HCT-15 colon) | TGI (HCT-15 colon) | GI50 (SF-539 CNS) | TGI (SF-539 CNS) | GI50 (UACC-62 melanoma) | TGI (UACC-62 melanoma) | GI50 (NCI-H522 lung) | TGI (NCI-H522 lung) | GI50 (SK-OV-3 ovarian) | TGI (SK-OV-3 ovarian)
C=C1C(=O)OC(CCCCCCCC)C1C(=O)O (centres undefined) | 5.57 µM | 44.9 µM | 16 µM | 34.9 µM | 10.7 µM | 23.2 µM | 15.9 µM | 30.8 µM | 17 µM | 31.6 µM | 12.1 µM | 24.7 µM | 7.57 µM | 20.1 µM | 34.3 µM | > 77.9 µM
CN(NC(=O)/C(=C/c1ccc(O)cc1)NC(=O)c1ccccc1)c1ccnc2cc(Cl)ccc12 | – | 10.4 µM | – | 33.8 µM | – | 32 µM | – | – | – | 43.3 µM | – | 31.8 µM | – | 60.7 µM | – | 36.6 µM
O=P(O)(O)OC1C(OP(=O)(O)O)C(OP(=O)(O)O)C(OP(=O)(O)O)C(OP(=O)(O)O)C1OP(=O)(O)O (centres undefined) | > 1780 µM | > 2000 µM | > 1560 µM | > 2000 µM | > 500 µM and 1720 µM | > 2000 µM | > 2000 µM | > 2000 µM | > 2000 µM | > 2000 µM | > 2000 µM | > 2000 µM | > 2000 µM | > 2000 µM | > 2000 µM | > 2000 µM
COc1c2occc2c(OC)c2c(=O)c(S(=O)(=O)NC(=O)Nc3ccc(Cl)cc3)coc12 | – | > 10 µM | – | > 10 µM | – | > 10 µM | – | > 10 µM | – | > 10 µM | – | > 10 µM | – | > 10 µM | – | > 10 µM
CC1CN(CCO)CC(C)O1 (centres undefined) | – | > 100 µM | – | > 100 µM | – | > 100 µM | – | > 100 µM | – | > 100 µM | – | > 100 µM | – | > 100 µM | – | > 100 µM
Cc1ncc(C(=O)Nc2ccc(CN3CCN(C)CC3)c(C(F)(F)F)c2)cc1C#Cc1c(N)ncc2ccc(C#N)cc12 | 1.42 µM | 12.2 µM | 0.89 µM | 7.22 µM | 0.327 µM | 1.29 µM | 0.547 µM | 8.86 µM | 1.14 µM | 8.06 µM | 0.0362 µM | 6.1 µM | 1.61 µM | 21.7 µM | 1.7 µM | 10.9 µM
CC/C(=C(\c1ccccc1)c1ccc(OCCN(C)C)cc1)c1ccccc1 | 1.82 µM | – | 3.42 µM | – | 1.39 µM | – | 2.01 µM | – | – | – | 1.75 µM | – | 1.42 µM | – | – | –
CC[C@]1(O)C[C@@H]2CN(Cc3c([nH]c4ccccc34)[C@@](C(=O)OC)(c3cc4c(cc3OC)N(C)[C@H]3[C@@](O)(C(=O)OC)[C@H](OC(C)=O)[C@]5(CC)[C@@H]6C[C@@H]6CN6CC[C@]43[C@@H]65)C2)C1 | 0.0174 µM | > 4.38 µM | > 4.38 µM | > 4.38 µM | 0.111 µM | > 4.38 µM | 2.78 µM | > 4.38 µM | 0.0363 µM | – | 0.0578 µM | > 4.38 µM | 0.0105 µM | 0.0947 µM | 0.0841 µM | > 4.38 µM
COc1ccc(C2SC(N)=Nc3c2c(C)nn3C(=O)c2ccncc2)cc1 (centres undefined) | – | 73 µM | – | – | – | > 100 µM | – | > 100 µM | – | > 100 µM | – | > 100 µM | – | – | – | > 100 µM
C#Cc1cccc(NC(=O)Nc2ccccc2NC(=O)CCl)c1 | 23.8 µM | > 82.5 µM | 15.1 µM | 33.8 µM | 12.1 µM | 26.1 µM | 15.1 µM | 41.6 µM | 13.8 µM | 32.4 µM | 13.8 µM | 25.8 µM | 20.8 µM | 71.5 µM | > 82.5 µM | > 82.5 µM
